Reference: publication PMC12064818, “A general assay platform to study protein pharmacology using ligand-dependent structural dynamics” (Nature Communications, 2025)
Counter-ions that a name gives are not always drawn. Like-named read-outs stand apart in the source and are kept apart here.

How the values were obtained:
PKA = conditions: cited from earlier work
PKA-N-HiBiT = PKA-N-HiBiT (Homo sapiens, UniProt P17612); experiment: SDR assay, PKA-N-HiBiT
[1] = target: FLuc-N-HiBiT (firefly luciferase) (Photinus pyralis, UniProt P08659, form not given/L550V); experiment: SDR assay, FLuc-N-HiBiT; conditions: ATP-independent pyrazolo pyrimidine (clade P)
Sequence of FLuc-N-HiBiT (firefly luciferase) (P08659 2-550 L550V, form open): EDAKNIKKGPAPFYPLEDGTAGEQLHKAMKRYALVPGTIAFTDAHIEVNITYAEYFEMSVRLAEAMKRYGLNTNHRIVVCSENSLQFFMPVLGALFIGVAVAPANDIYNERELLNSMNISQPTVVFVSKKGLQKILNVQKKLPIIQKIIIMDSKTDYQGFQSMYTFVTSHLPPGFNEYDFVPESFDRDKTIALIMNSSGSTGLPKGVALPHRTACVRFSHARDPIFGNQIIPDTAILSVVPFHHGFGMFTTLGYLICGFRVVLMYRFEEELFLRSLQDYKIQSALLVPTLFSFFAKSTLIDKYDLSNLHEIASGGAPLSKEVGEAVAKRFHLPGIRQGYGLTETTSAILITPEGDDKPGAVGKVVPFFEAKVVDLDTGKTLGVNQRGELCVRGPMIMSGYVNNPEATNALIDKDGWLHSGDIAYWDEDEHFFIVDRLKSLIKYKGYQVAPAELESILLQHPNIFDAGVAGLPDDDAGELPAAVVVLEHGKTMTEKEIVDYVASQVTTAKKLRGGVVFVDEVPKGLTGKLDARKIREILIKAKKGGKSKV

[2] = target: T1, ABL1-N-HiBiT kinase domain (Homo sapiens, UniProt P00519); experiment: SDR assay, ABL1-N-HiBiT
T1 sequence (P00519 233-500): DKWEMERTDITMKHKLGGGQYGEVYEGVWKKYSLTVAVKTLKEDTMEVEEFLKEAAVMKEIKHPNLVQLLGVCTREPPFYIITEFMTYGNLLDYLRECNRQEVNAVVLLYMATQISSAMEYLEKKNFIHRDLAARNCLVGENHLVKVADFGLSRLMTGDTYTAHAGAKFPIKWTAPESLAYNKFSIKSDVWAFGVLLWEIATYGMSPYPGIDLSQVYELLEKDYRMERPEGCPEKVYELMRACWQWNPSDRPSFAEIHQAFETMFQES

[3] = annotation yes/no for kinase library compound, source not given
[4] = PKA-N-HiBiT qHTS, SDR assay, average maximal response
[5] = ABL1-N-HiBiT qHTS, average maximal SDR response
[6] = heatmap data, 128 kinase inhibitors
[7] = read-out: SDR Ave SDR50, ABL1-N-HiBiT qHTS, average, unit inferred
[8] = ABL1-N-HiBiT qHTS, SDR assay, average maximal response
[9] = read-out: PKA SDR Ave SDR50, PKA-N-HiBiT qHTS, SDR assay, average

Molecule | Annotated PKA activity (PKA; [3]) | SDR Ave Max Response (PKA-N-HiBiT; [4]) | SDR Ave Max Response [2, 5] | ABL1 SDR pSDR50 [2, 6] | further results
O=c1cc(N2CCOCC2)nc2c3ccccc3ccn12 [Compound 401] | no |  |  |  | Emax (PKA-N-HiBiT; read-out: SDR Ave Max Response): 0.18%; pSDR50 (clade P) [1]: 4.78; % Activity (max response) ([1]; SDR): 29.04%; EC50 ([2]; ABL1 SDR pSDR50, ABL1, SDR, heatmap data, 128 kinase inhibitors): 7.41 µM; EC50 ([2]; SDR Ave SDR50, ABL1-N-HiBiT qHTS, average, unit inferred): 7.6 µM; Emax ([2]; read-out: SDR Ave Max Response): 22.9%
C[C@@H]1CN(CC(=O)Nc2ccc3c(c2)Cc2cccc(-c4cc(=O)cc(N5CCOCC5)o4)c2S3)C[C@H](C)O1 [KU-60019] | no | -4.54 | -23.55 |  | 
CN1CCN(CCCNc2ncc(Cl)c(-c3cc4c(C(=O)NC5CC5)cccc4s3)n2)CC1 [LY-2409881] | no | -2.90 | -19.98 | 5.21 | EC50 [2, 7]: 7.98 µM
O=C(c1cccc(Cl)c1F)N1CCN(Cc2cccc(Nc3nccs3)n2)CC1 [MK-8745] | no | -13.81 | 59.57 | 5.27 | EC50 [2, 7]: 5.74 µM
O=C(NCCCNc1nc(Nc2ccc(N3CCOCC3)cc2)ncc1C1CC1)C1CCC1 [MRT-68601 HCl] | no | 1.65 |  |  | SDR Ave Max Response [2, 8]: -7.81
Cc1n[nH]c2ncc(C(=O)N3CCC[C@H]3c3ccc(Cl)cc3)cc12 [MSC2530818] | no | 40.05 |  |  | EC50 (PKA-N-HiBiT): 14.1 µM; EC50 (PKA-N-HiBiT; [9]): 14.5 µM; SDR Ave Max Response [2, 8]: 4.30
Cc1ccc(C(=O)Nc2ccc(Oc3cc4cnn(C)c4cc3-c3cn[nH]c3)c(F)c2)c(=O)n1-c1ccc(F)cc1 [Merestinib] | no | 8.78 | 22.76 |  | 
FC(F)(F)c1ccc(/C=C/c2nc(COc3ccc(CCCCn4ccnn4)cc3)co2)cc1 [Mubritinib] |  |  |  |  | Annotated PKA activity (PKA): no; SDR Ave Max Response (PKA-N-HiBiT): 6.74; SDR Ave Max Response [2]: 1.25
CNC(=O)c1ccccc1Nc1nc(Nc2ccc(N3CCOCC3)cc2OC)ncc1Cl [NVP-TAE226] | no | 11.43 | 60.77 |  | 
COc1ccc(-n2c(SCC#N)nc3sc4c(c3c2=O)CCCC4)cc1 [Necrostatin-5] | no | 1.51 |  |  | SDR Ave Max Response [2]: -3.84
O=C(Nc1ccc(OC(F)(F)F)cc1)c1sccc1NCc1ccnc2ccccc12 [OSI-930] | no | 9.10 | 17.46 | 5.04 | EC50 [2, 7]: 9.38 µM
O=C(NOCC(O)CO)c1cc(Br)c(F)c(F)c1Nc1ccc(I)cc1F (centres unmarked) [PD-318088] | no | -21.34 | -2.26 |  | PKA SDR Ave pSDR50 (PKA-N-HiBiT; PKA-N-HiBiT qHTS, SDR assay, average): 4.33; EC50 (PKA-N-HiBiT; [9]): 62 µM
N#Cc1cccc(-c2c[nH]c3ncnc(N4CCOCC4)c23)c1 [PF-06447475] | no | 35.28 | 52.23 | 4.46 | EC50 (PKA-N-HiBiT): 19.5 µM; EC50 (PKA-N-HiBiT; [9]): 20.8 µM; EC50 [2, 7]: 35.5 µM
Cc1ccc(NC(=O)N2CCN(c3nc(N)nc4sc(-c5cccnc5)nc34)CC2)cc1 [PI4KIII beta inhibitor 3] | no | 3.67 | 18.89 |  | SDR Ave pSDR50 ([2]; ABL1-N-HiBiT qHTS, average): 4.83; EC50 [2, 7]: 14.9 µM
C=CC(=O)N1CCC(Oc2cc3c(Nc4ccc(Cl)c(Cl)c4F)ncnc3cc2OC)CC1 [Poziotinib] | no | 8.47 | 56.26 | 4.03 | 
CO[C@H]1/C=C/O[C@@]2(C)Oc3c(C)c(O)c4c(O)c(c(/C=N\N5CCN(C6CCCC6)CC5)c(O)c4c3C2=O)NC(=O)C(C)=C/C=C/[C@H](C)[C@H](O)[C@@H](C)[C@@H](O)[C@@H](C)[C@H](OC(C)=O)[C@@H]1C [Rifapentin] | no | -45.77 | -34.67 | 4.28 | EC50 (PKA-N-HiBiT; [9]): 17.1 µM

Molecule | Annotated PKA activity (PKA; [3]) | SDR Ave Max Response (PKA-N-HiBiT; [4]) | SDR Ave Max Response [2, 5] | ABL1 SDR pSDR50 [2, 6] | further results
Cc1cc(F)ccc1-c1nc(NCCNC(=N)NC#N)nc2c1ccc(=O)n2-c1c(F)cccc1F [SB 706504] | no | 3.70 | 3.05 |  | 
COc1cc(NC(=O)c2cccc(-n3cc(NC(=O)Nc4cccc(C)c4)cn3)c2)cc(OC)c1OC [SR 3576] | no | 1.20 | 6.18 |  | 
O=C(Nc1cc(C(F)(F)F)ccc1N1CCCCC1)c1ccncc1 [SRPIN340] | no | 1.60 | -4.31 |  | 
N#Cc1ccc2ncnc(NCCc3ccccc3)c2c1 [Senexin A] | no | -4.85 | -0.36 |  | 
Cn1sc(=O)n(Cc2ccccc2)c1=O [TDZD 8] | no | 1.44 | -3.85 |  | 
O=C1CCC(N2C(=O)c3ccccc3C2=O)C(=O)N1 (centres unmarked) [Thalidomide] | no | -13.01 | -2.59 |  | 
COC(=O)Nc1ccc(-c2nc(N3CCOCC3)c3cnn(C4CCN(C(=O)OC)CC4)c3n2)cc1 [WYE-354] | no | 4.88 | 1.70 |  | 
C=CC(=O)Nc1cccc(Oc2nc(Nc3ccc(N4CCN(C)CC4)cc3OC)ncc2Cl)c1 [WZ4002] | no | 3.01 | 9.81 |  | 
CCNC(=O)Nc1ccc(-c2nc3c(c(N4CCOC[C@@H]4C)n2)CCN(c2ncccn2)C3)cc1 [mTOR-IN-1] | no | 1.84 | 10.90 |  | 
CaMKII-IN-1 | no | -11.95 | -23.39 | 4.38 | 
Indirubin | no | 5.53 |  |  | SDR Ave Max Response [2]: 2.52
Mps1-IN-3 | no | 14.72 | 66.03 | 4.80 | 
PHT-427 | no | -6.93 | 10.06 |  | 
PLX-4720 | no | 5.33 | 37.18 | 4.63 | EC50 [2, 7]: 24.5 µM
STF-083010 | no | 1.50 | -0.63 |  | 
UK-371804 | no | 6.35 |  | 4.69 | SDR Ave Max Response [2, 8]: -28.31; EC50 ([2]; read-out: SDR Ave SDR50, ABL1-N-HiBiT qHTS, SDR assay, average): 26.5 µM
